Among the test systems are IGROV-1; LOX IMVI; K562; NCI-H226; SF-295; OVCAR-3; SF-539; SNB-75; NCI-H23; SR; Malme-3M; UACC-62; HL-60; A498.
Assay in all cases: NCI-60 cell line screen, 48 h

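Method: 48-hour compound exposure of cells in 96-well plates, five concentrations, linear interpolation of endpoints. GI50 marks 50% less growth.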 The source made the active and inactive calls. No stated cut-off is given here; in the data, active = GI50 up to about 1.1 µM and inactive = higher.

`Cc1ccc(S(=O)(=O)c2ccc(C)cc2[N+](=O)[O-])c([N+](=O)[O-])c1`: the GI50 in the assay on IGROV-1, in the assay on LOX IMVI, in the assay on K562, with NCI-H226, in the assay with SF-295 and with OVCAR-3 was > 100 µM (inactive) each time. Besides, the GI50 in the assay on SF-539 is > 100 µM (inactive); in the assay with SNB-75 it was 18.5 µM (inactive); in the assay on NCI-H23 it was > 100 µM (inactive); with SR, > 100 µM (inactive); in the assay on Malme-3M, > 100 µM (inactive); with UACC-62, > 100 µM (inactive).
In the case of `Cc1ccc(S(=O)(=O)N(/N=C(\N)Oc2ccc(Cl)cc2)C(=N)Oc2ccc(Cl)cc2)cc1`, the GI50 with IGROV-1, in the assay on LOX IMVI, in the assay on K562, with NCI-H226, in the assay on SF-295 and with OVCAR-3 was > 100 µM (inactive) throughout. For the same compound, the GI50 in the assay with SF-539, with SNB-75, in the assay on NCI-H23, in the assay on HL-60, in the assay on SR and in the assay on A498 was > 100 µM (inactive) throughout. In addition, the GI50 in the assay on Malme-3M and with UACC-62 was > 100 µM (inactive) throughout.
With `COc1ccc(-c2oc3c(OC)c(OC)c(OC)c(O)c3c(=O)c2OC)cc1O`, the GI50 was 0.462 µM (active) with IGROV-1; 0.0935 µM (active) in the assay with LOX IMVI; < 0.01 µM (active) in the assay on K562; 0.0612 µM (active) in the assay with NCI-H226; 0.478 µM (active) with SF-295; 0.0632 µM (active) with OVCAR-3. In addition, the GI50 in the assay on SF-539 was 0.0327 µM (active); with SNB-75, 0.0443 µM (active); in the assay on NCI-H23, 0.254 µM (active); in the assay on HL-60, < 0.01 µM (active); in the assay with SR, 0.0702 µM (active); in the assay with A498, 1.6 µM (inactive). Besides, the GI50 in the assay on Malme-3M was 0.065 µM (active); in the assay with UACC-62, 0.0481 µM (active).
On to `COc1cc(/C=N/N=C(\N)NO)c(Cl)cc1O`, for which the GI50 in the assay on IGROV-1 is > 100 µM (inactive); with LOX IMVI, 32.7 µM (inactive); in the assay on K562 it was 83.2 µM (inactive); in the assay with NCI-H226 it was 81.5 µM (inactive); with SF-295, 96.2 µM (inactive); with SF-539, 81.3 µM (inactive). For the same compound, the GI50 in the assay with NCI-H23 was 35.5 µM (inactive); in the assay with A498, 99.8 µM (inactive); with Malme-3M, 68.7 µM (inactive); in the assay on UACC-62, 47.1 µM (inactive).
For `O=C1NC(=S)NC(=O)C1=Cc1ccc([N+](=O)[O-])o1`, the GI50 is 21.6 µM (inactive) in the assay with IGROV-1; 17.6 µM (inactive) in the assay with LOX IMVI; 23.9 µM (inactive) in the assay on K562; > 100 µM (inactive) with NCI-H226; 78.3 µM (inactive) in the assay on SF-295; 22.9 µM (inactive) with SF-539. For the same compound, the GI50 in the assay with SNB-75 was 16.2 µM (inactive); in the assay with NCI-H23, 16.9 µM (inactive); with HL-60, 27.1 µM (inactive); in the assay with SR, 19.6 µM (inactive); in the assay on A498 it was > 100 µM (inactive); in the assay on Malme-3M, 14.7 µM (inactive). Besides, the GI50 in the assay on UACC-62 is 19.4 µM (inactive).
On to `C=C(COC(C)=O)CC(OC(C)=O)c1ccccc1` (centres undefined), for which the GI50 in the assay with IGROV-1, in the assay on LOX IMVI, with K562, in the assay with NCI-H226, in the assay on SF-295 and with OVCAR-3 was > 100 µM (inactive) each time. The GI50 with SF-539, in the assay on SNB-75, in the assay on NCI-H23, in the assay with HL-60, in the assay with A498 and with UACC-62 was > 100 µM (inactive) each time.
`c1cc(N(CCn2cccn2)CCn2cccn2)cc(N(CCn2cccn2)CCn2cccn2)c1`: the GI50 in the assay on LOX IMVI, in the assay with K562, with SF-295, in the assay with OVCAR-3, in the assay with SNB-75 and with HL-60 was > 100 µM (inactive) each time. In addition, the GI50 with SR, in the assay on A498 and in the assay on UACC-62 was > 100 µM (inactive) in each case.
`C/C(=C\Cc1cc(O)ccc1O)CCc1c(C)cc(O)c(C=O)c1C` [PANICEIN B3]: the GI50 in the assay on IGROV-1 was 23.2 µM (inactive); in the assay with K562 it was > 100 µM (inactive); in the assay with NCI-H226, 22.5 µM (inactive); in the assay on SF-295 it was 27 µM (inactive); with OVCAR-3 it was 24.9 µM (inactive); in the assay on SF-539, 18.5 µM (inactive). The GI50 with SNB-75 was 13.9 µM (inactive); in the assay on NCI-H23, 22.5 µM (inactive); in the assay on HL-60, 34.6 µM (inactive); in the assay on SR, 28.4 µM (inactive); in the assay on A498, 40.3 µM (inactive); with Malme-3M it was 21.3 µM (inactive).
As to `CC(=O)O[C@]12CCCCC1C1(O)C(O)CCCCC12` (some centres undefined), the GI50 in the assay on LOX IMVI, in the assay on K562, in the assay on NCI-H226, with SF-295, with SNB-75 and in the assay on NCI-H23 was > 100 µM (inactive) each time. The GI50 with HL-60, in the assay with SR, in the assay on Malme-3M and in the assay with UACC-62 was > 100 µM (inactive) each time.
For `O=C1NC2(CCCC2)C2CCCCC12O` (centres undefined), the GI50 in the assay with IGROV-1, in the assay on LOX IMVI, in the assay on K562, in the assay on SF-295, with OVCAR-3 and with SF-539 was > 100 µM (inactive) throughout. The GI50 in the assay on SNB-75, in the assay with NCI-H23, in the assay with HL-60, in the assay on SR, in the assay with A498 and in the assay on Malme-3M was > 100 µM (inactive) each time. For the same compound, the GI50 with UACC-62 was > 100 µM (inactive).
Regarding `CC1(C)CC(N2CCN(C3CC(C)(C)NC(C)(C)C3)CC2)CC(C)(C)N1`, the GI50 in the assay with IGROV-1, with LOX IMVI, in the assay with K562, in the assay on SF-295, in the assay on OVCAR-3 and in the assay on SF-539 was > 100 µM (inactive) throughout. In addition, the GI50 in the assay on SNB-75, in the assay with NCI-H23, with HL-60, in the assay on SR, in the assay on A498 and in the assay with UACC-62 was > 100 µM (inactive) in each case.
Take `COc1cc(C2C(Cl)C(=O)N2n2cnc3ccccc3c2=O)ccc1O` (centres undefined): the GI50 in the assay on IGROV-1 is 78.2 µM (inactive); in the assay with LOX IMVI, > 100 µM (inactive); in the assay on NCI-H226, > 100 µM (inactive); in the assay with SF-295, > 100 µM (inactive); in the assay with OVCAR-3, 85.1 µM (inactive); in the assay with SNB-75, 26.1 µM (inactive). Also, the GI50 was 39.1 µM (inactive) in the assay with NCI-H23; > 10 µM (inactive) with HL-60; 83.6 µM (inactive) in the assay on SR; > 100 µM (inactive) with Malme-3M; 60.8 µM (inactive) in the assay on UACC-62.
Regarding `Oc1ccncc1-c1cnccc1O`, the GI50 with IGROV-1, with LOX IMVI, in the assay on K562, in the assay on NCI-H226, in the assay with SF-295 and in the assay with OVCAR-3 was > 100 µM (inactive) throughout. Moreover, the GI50 with SF-539, with SNB-75, in the assay with NCI-H23, with HL-60, in the assay with A498 and in the assay on Malme-3M was > 100 µM (inactive) in each case. Also, the GI50 in the assay with UACC-62 is > 100 µM (inactive).
In the case of `C#CCN(Cc1ccc2nc(-c3ccccc3)c(N)nc2c1)c1cc(OC)c(OC)c(OC)c1`, the GI50 was 37.1 µM (inactive) in the assay with IGROV-1; 25.2 µM (inactive) in the assay with LOX IMVI; 23.8 µM (inactive) in the assay on K562; 16.7 µM (inactive) with NCI-H226; 18.7 µM (inactive) with SF-295; 15.4 µM (inactive) with OVCAR-3. In addition, the GI50 is 36.6 µM (inactive) in the assay on SF-539; 30.4 µM (inactive) in the assay with SNB-75; 25.1 µM (inactive) in the assay on NCI-H23; 17.9 µM (inactive) with HL-60; 13.9 µM (inactive) in the assay with SR; 26.9 µM (inactive) with Malme-3M. For the same compound, in the assay with UACC-62, the GI50 was 20 µM (inactive).
As for `Cc1cc(C)cc(NC(=O)CCC(=O)C2CCC/C2=N\NC(=O)C(=O)NN)c1` (centres undefined), the GI50 in the assay with IGROV-1, with LOX IMVI, with K562, with NCI-H226, in the assay on SF-295 and with OVCAR-3 was > 100 µM (inactive) each time. In addition, the GI50 with SF-539, with SNB-75, in the assay on NCI-H23, in the assay with HL-60, with A498 and with Malme-3M was > 100 µM (inactive) each time. For the same compound, the GI50 with UACC-62 was > 100 µM (inactive).
For `N#CC(=C1C=CC(=NO)C=C1)c1ccc(Cl)cc1`, the GI50 in the assay with IGROV-1 is 17.1 µM (inactive); with LOX IMVI, 3.22 µM (inactive); with K562, 3.78 µM (inactive); with SF-295, 16.6 µM (inactive); in the assay with OVCAR-3 it was 3.52 µM (inactive); in the assay with SF-539, 7.33 µM (inactive). Besides, the GI50 with SNB-75 was 24.3 µM (inactive); in the assay on NCI-H23, 23.7 µM (inactive); with HL-60, 2.36 µM (inactive); in the assay with SR it was 4.83 µM (inactive); in the assay with A498, 67.3 µM (inactive); in the assay on Malme-3M, 21.8 µM (inactive). Besides, in the assay on UACC-62, the GI50 was 3.71 µM (inactive).

The values are drawn from ChEMBL document CHEMBL1201862, “PubChem BioAssay data set” (2004).
